ChEMBL document CHEMBL1201862, “PubChem BioAssay data set” (2004)
Counter-ions that a name gives are not always drawn. Calls of active or inactive are those of the source. Cut-off read from the data, not from the text of the source, for most assays here: actives have a measured IC50 and inactives only a lower limit.

Experiments:
SUMO-activating enzyme [1] = target: T1, SUMO-activating enzyme (Homo sapiens, UniProt Q9UBT2); assay: blockers of SAE1/SAE2–UBC9 SUMO transfer – biochemical, HTRF, uHTS, primary screen (AID 2006); format: protein-complex assay
T1 sequence (Q9UBE0 whole entry): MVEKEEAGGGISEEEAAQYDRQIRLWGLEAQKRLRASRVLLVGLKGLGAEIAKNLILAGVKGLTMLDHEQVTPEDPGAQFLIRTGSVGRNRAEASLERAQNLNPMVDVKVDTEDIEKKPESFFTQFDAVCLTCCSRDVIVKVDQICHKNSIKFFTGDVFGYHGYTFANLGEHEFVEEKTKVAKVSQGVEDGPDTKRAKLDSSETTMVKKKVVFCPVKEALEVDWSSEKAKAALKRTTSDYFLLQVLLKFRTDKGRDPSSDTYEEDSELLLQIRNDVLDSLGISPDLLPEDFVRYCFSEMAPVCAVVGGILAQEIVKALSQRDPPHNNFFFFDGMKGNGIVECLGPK
T1 sequence (Q9UBT2 whole entry): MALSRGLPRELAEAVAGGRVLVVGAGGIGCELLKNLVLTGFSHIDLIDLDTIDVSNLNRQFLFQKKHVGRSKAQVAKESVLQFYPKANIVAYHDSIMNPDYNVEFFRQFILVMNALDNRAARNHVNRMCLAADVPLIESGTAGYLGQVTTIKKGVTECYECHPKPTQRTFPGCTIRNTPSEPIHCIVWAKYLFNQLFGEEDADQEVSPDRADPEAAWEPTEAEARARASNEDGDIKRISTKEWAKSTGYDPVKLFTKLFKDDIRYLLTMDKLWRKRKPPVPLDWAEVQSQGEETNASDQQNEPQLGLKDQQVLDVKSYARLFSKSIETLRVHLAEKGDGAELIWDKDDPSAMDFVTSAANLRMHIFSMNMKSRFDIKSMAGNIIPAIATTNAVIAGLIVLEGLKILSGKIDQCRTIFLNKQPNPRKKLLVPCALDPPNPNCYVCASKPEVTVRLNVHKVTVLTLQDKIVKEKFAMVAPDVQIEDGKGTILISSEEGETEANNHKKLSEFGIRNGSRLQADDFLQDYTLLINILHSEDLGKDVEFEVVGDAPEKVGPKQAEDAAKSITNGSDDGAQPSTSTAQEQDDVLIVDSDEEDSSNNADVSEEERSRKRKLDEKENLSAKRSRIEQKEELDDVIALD

[2] = Luminescence Cell-Based Dose Retest to Confirm Inhibitors of Cancer Stem Cells. [Related pubchem assays (depositor defined):AID2717, AID2721]; format: functional; details: Homo sapiens
SUMO-activating enzyme [3] = target: T1, SUMO-activating enzyme; assay: blockers of UBC9-mediated SUMO conjugation – biochemical, AlphaScreen, SUMOylation inhibitor project, confirmation (AID 2018); format: functional
[4] = HEK-293T cell viability reduction – luminescence, B-cell screen hits, cytotoxicity control for BCR NF-kB inhibitor project, dose response (AID 489021); format: functional, cell-based;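 note: HEK-293T cells carrying an NF-kB luciferase reporter; cells exposed to compound for about 14 hours before viability readout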
Beta-galactosidase = Beta-galactosidase (Escherichia coli, UniProt Q8VNN2); format: functional
Chain of Beta-galactosidase (Q8VNN2 whole entry): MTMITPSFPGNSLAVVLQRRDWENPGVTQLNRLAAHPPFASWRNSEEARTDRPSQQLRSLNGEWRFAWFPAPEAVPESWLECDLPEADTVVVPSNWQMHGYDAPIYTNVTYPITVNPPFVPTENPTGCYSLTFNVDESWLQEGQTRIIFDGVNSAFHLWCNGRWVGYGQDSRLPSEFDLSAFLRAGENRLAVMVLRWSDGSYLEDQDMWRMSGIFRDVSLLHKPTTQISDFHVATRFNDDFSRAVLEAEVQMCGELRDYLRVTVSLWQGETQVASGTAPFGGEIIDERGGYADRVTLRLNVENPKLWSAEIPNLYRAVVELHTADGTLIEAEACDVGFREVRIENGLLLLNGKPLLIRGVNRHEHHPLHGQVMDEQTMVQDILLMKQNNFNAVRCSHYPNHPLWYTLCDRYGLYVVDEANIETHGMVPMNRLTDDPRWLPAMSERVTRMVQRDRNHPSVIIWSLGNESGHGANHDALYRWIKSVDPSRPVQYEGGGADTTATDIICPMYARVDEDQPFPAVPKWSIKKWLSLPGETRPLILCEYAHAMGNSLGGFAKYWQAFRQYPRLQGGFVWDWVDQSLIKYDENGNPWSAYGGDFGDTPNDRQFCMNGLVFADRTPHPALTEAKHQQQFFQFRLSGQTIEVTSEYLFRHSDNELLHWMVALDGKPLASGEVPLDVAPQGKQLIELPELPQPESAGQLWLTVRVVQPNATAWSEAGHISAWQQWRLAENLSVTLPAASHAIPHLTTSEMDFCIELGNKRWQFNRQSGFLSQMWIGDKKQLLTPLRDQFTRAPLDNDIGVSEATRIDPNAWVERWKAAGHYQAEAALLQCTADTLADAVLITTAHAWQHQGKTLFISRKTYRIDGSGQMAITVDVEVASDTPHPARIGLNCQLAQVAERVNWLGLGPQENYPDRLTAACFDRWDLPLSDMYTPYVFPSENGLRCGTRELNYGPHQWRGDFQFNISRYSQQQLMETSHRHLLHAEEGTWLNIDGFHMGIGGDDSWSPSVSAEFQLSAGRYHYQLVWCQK

Wee1-like protein kinase = Wee1-like protein kinase (Homo sapiens, UniProt P30291); assay: HeLa cell cycle G2/M accumulation – FACS, mechanism study for Wee1 degradation inhibitor project, late-stage follow-up, panel member Wee1 Degradation (AID 2088)
Chain of Wee1-like protein kinase (P30291 whole entry): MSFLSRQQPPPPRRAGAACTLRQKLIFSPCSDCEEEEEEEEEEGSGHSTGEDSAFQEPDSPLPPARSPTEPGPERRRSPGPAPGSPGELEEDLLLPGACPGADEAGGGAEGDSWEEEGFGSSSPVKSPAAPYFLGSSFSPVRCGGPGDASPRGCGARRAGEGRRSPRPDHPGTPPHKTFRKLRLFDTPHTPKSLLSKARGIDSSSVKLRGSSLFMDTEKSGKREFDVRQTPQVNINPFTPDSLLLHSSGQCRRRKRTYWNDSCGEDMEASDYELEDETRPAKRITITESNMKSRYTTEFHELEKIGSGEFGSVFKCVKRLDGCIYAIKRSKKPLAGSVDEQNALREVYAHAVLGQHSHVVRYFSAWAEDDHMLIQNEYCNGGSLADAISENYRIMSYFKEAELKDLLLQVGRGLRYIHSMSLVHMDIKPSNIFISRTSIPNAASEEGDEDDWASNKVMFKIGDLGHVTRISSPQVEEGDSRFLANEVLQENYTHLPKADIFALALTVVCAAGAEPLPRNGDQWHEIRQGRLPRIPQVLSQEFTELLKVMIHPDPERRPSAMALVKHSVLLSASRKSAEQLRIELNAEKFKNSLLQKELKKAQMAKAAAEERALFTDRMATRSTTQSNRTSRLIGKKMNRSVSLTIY

[5] = target: G2/mitotic-specific cyclin-B1 (Homo sapiens, UniProt P14635); assay: HeLa cell cycle G2/M accumulation – FACS, mechanism study for Wee1 degradation inhibitor project, late-stage follow-up, panel member Cyclin B Degradation (AID 2088)
Chain of G2/mitotic-specific cyclin-B1 (P14635 whole entry): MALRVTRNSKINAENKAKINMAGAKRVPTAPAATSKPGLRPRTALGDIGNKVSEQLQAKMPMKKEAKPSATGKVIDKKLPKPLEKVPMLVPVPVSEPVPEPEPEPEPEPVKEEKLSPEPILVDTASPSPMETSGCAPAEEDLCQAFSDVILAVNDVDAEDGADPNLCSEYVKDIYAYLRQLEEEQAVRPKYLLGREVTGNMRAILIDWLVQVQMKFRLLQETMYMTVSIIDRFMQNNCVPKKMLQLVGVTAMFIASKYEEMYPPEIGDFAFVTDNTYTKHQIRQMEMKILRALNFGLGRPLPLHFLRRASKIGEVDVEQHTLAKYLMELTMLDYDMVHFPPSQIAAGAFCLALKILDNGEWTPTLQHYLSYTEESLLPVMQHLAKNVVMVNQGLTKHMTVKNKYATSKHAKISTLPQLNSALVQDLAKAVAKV

[6] = target: T2, Tyrosine-protein phosphatase non-receptor type 7 (Homo sapiens, UniProt P35236); format: functional
T2 sequence (P35236 whole entry): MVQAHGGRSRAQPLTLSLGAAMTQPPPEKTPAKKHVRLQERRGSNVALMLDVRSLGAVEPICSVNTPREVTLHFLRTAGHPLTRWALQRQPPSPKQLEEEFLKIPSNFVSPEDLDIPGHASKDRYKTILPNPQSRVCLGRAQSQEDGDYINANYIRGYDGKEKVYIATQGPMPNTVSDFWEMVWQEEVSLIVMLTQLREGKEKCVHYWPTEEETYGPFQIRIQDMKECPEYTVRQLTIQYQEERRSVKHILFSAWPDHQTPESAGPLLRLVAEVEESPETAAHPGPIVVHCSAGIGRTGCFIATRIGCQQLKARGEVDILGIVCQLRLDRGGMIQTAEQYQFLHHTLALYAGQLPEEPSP

[7] = target: Heat shock cognate 71 kDa protein (Homo sapiens, UniProt P11142); assay: In Vitro Hsc70 Dose Response Fluorescence Polarization Assay. [Related pubchem assays: 1072 ]
Chain of Heat shock cognate 71 kDa protein (P11142 whole entry): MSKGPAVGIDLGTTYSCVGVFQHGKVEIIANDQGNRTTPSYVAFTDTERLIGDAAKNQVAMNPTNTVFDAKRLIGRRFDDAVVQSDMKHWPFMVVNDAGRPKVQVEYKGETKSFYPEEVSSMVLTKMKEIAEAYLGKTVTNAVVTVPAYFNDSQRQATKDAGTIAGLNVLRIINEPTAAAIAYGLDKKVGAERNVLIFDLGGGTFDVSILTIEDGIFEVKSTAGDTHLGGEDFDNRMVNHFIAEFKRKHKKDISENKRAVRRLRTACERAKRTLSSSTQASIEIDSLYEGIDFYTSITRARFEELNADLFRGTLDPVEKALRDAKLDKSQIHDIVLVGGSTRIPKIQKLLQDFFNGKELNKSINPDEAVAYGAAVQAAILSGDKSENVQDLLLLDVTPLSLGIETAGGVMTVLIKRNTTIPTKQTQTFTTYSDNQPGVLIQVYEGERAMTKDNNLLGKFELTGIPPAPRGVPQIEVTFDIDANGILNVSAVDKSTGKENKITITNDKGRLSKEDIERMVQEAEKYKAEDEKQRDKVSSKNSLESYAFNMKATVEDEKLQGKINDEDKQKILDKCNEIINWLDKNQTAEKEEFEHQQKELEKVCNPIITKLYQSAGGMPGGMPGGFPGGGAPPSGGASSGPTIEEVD

[8] = target: T3, Dual specificity protein phosphatase 6 (Rattus norvegicus, UniProt Q64346); format: functional
T3 sequence (Q64346 whole entry): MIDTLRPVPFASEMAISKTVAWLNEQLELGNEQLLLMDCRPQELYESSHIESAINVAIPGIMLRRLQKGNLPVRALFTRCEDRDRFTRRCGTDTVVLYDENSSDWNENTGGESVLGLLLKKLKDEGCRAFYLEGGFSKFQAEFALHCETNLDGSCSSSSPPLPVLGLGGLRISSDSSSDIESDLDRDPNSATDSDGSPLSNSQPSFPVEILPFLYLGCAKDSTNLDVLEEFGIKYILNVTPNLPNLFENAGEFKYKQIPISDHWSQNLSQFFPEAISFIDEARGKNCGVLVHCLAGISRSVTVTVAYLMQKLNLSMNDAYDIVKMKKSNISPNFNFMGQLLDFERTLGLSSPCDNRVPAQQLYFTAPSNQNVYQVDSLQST

[9] = target: Heat shock 70 kDa protein 1A (Homo sapiens, UniProt P0DMV8); assay: inhibition of Hsp70 binding activity – biochemical, fluorescence polarization, SAR follow-up (AID 1072)
Chain of Heat shock 70 kDa protein 1A (P0DMV8 whole entry): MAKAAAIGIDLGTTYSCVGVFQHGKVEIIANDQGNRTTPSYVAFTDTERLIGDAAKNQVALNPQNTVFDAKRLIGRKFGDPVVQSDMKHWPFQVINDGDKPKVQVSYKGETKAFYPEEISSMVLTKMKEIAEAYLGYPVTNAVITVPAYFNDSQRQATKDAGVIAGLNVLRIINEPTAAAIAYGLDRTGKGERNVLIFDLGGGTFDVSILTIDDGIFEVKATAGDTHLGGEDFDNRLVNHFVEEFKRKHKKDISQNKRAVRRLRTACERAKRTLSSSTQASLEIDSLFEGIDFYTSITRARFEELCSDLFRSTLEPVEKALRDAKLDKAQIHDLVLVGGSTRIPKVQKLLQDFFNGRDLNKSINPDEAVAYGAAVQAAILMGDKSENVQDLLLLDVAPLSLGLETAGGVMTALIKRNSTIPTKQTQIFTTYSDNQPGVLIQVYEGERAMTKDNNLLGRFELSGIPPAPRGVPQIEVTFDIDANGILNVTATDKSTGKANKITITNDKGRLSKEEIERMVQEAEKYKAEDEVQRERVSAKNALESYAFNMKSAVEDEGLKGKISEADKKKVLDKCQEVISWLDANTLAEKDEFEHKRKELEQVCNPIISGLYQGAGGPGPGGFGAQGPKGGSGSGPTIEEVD

[10] = target: Glyceraldehyde-3-phosphate dehydrogenase (Homo sapiens, UniProt P04406)
Chain of Glyceraldehyde-3-phosphate dehydrogenase (P04406 whole entry): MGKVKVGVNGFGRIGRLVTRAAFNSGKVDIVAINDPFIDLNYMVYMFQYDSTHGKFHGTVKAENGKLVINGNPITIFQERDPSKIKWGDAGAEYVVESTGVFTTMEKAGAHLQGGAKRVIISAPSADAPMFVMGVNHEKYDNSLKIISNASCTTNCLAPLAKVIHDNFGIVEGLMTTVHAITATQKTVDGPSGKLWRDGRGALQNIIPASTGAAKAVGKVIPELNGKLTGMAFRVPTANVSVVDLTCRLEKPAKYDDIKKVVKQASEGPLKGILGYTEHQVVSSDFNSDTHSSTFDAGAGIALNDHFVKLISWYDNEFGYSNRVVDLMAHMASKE

[11] = target: T3, Dual specificity protein phosphatase 6
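Throughout, for AC50: cells exposed to compound for roughly 70 hours or longer before luminescence read.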

For COc1ccc(OC)c(/C=C2\SC(NNC(=O)c3ccc4ccccc4c3)=NC2=O)c1, the IC50 (SUMO-activating enzyme [1]) was 18.1 µM (active), the AC50 [2] was 2.36 µM (active) and the IC50 (SUMO-activating enzyme [3]) was 2.14 µM (active).
In the case of O=C(CSCCO)Nc1ccc(C23C[C@H]4C[C@@H](C2)C[C@@H](C3)C4)cc1, the IC50 [4] is reported as > 80 µM (inactive).
With C=CCN1CC[C@]23c4c5ccc(O)c4O[C@H]2C(=O)CC[C@@]3(O)[C@H]1C5 [NALOXONE HYDROCHLORIDE] the EC50 (Beta-galactosidase) was > 31.5 µM (inactive).
In the case of Cc1cc(Br)ccc1NC(=O)CCCOc1cc(=O)n(C)c2ccccc12, the EC50 (Wee1-like protein kinase) is reported as > 49.7 µM (inactive) and the EC50 [5] is reported as > 49.7 µM (inactive).
In the case of O=C(O)c1ccc([N+](=O)[O-])c2c1NC(C(=O)O)C1CC=CC21 (stereo not drawn), the IC50 [6] is reported as 92.9 µM (active), the IC50 [7] is reported as > 100 µM (not active) and the IC50 [8] is reported as > 100 µM (inactive). The IC50 [9] was 90.6 µM (active), the IC50 [10] was > 100 µM (not active) and the IC50 [11] was > 100 µM (inactive).
